Laboratory results taken from PubChem BioAssay AID190 (DTP/NCI, 2004).
Values joined by “and” are separate entries in the source; they are usually repeats but may differ in a detail not shown here. Equal entries are not always repeated. Inconclusive results and toxic doses are left out. The calls were made as follows: active = survival T/C of 150% or more; inactive = T/C below 125% in these data.

Tested on: AKR/Lw mice, AKR lymphoma ip, median survival T/C
Assay: NCI In Vivo Anticancer Drug Screen. Data for tumor model Lymphoma AKR (Transplanted) (intraperitoneal) in AKR/Lw mice
Conditions: endpoint: median survival time, higher = longer survival
Method: The antitumor activity of compounds was measured in mice bearing transplantable tumors. Survival or tumor size were measured and the results are expressed as the measurement made in the treated group (T) divided by the measurement made in the vehicle treated control group (C). The tumor model used in this assay is Lymphoma AKR (Transplanted) (intraperitoneal) in AKR/Lw mice

Measured: T/C

Nc1n[nH]c(N)n1
inactive: dose: 37.5 mg/kg/injection, schedule: Q06HX012 (ip), vehicle: saline 96 % of control | dose: 37.5 mg/kg/injection, schedule: Q06HX016 (ip), vehicle: saline 100 % of control | dose: 50.0 mg/kg/injection, schedule: Q01DX010 (ip), vehicle: saline 106 % of control | dose: 75.0 mg/kg/injection, schedule: Q06HX008 (ip), vehicle: saline 100 % of control | dose: 75.0 mg/kg/injection, schedule: Q06HX012 (ip), vehicle: saline 93 % of control | dose: 75.0 mg/kg/injection, schedule: Q06HX016 (ip), vehicle: saline 96 % of control | dose: 100.0 mg/kg/injection, schedule: Q01DX010 (ip), vehicle: saline 103 % of control | dose: 125.0 mg/kg/injection, schedule: Q06HX004 (ip), vehicle: saline 116 % of control | dose: 150.0 mg/kg/injection, schedule: Q01DX009 (ip), vehicle: saline 103 % of control | dose: 150.0 mg/kg/injection, schedule: Q06HX008 (ip), vehicle: saline 93 % of control | dose: 150.0 mg/kg/injection, schedule: Q06HX012 (ip), vehicle: saline 110 % of control | dose: 150.0 mg/kg/injection, schedule: Q06HX016 (ip), vehicle: saline 103 % of control | dose: 175.0 mg/kg/injection, schedule: Q01DX010 (ip), vehicle: saline 109 % of control | dose: 200.0 mg/kg/injection, schedule: Q04DX003 (ip), vehicle: saline 106 % of control | dose: 250.0 mg/kg/injection, schedule: Q01DX010 (ip), vehicle: saline 112 % of control | dose: 250.0 mg/kg/injection, schedule: Q06HX004 (ip), vehicle: saline 90 % of control and 92 % of control and 119 % of control | dose: 300.0 mg/kg/injection, schedule: Q01DX009 (ip), vehicle: saline 100 % of control | dose: 300.0 mg/kg/injection, schedule: Q06HX008 (ip), vehicle: saline 107 % of control | dose: 300.0 mg/kg/injection, schedule: Q06HX012 (ip), vehicle: saline 100 % of control | dose: 375.0 mg/kg/injection, schedule: Q01DX010 (ip), vehicle: saline 116 % of control | dose: 400.0 mg/kg/injection, schedule: Q04DX003 (ip), vehicle: saline 110 % of control | dose: 450.0 mg/kg/injection, schedule: Q06HX008 (ip), vehicle: saline 107 % of control | dose: 450.0 mg/kg/injection, schedule: Q06HX012 (ip), vehicle: saline 92 % of control | dose: 500.0 mg/kg/injection, schedule: Q06HX004 (ip), vehicle: saline 88 % of control and 116 % of control | dose: 530.0 mg/kg/injection, schedule: Q04DX003 (ip), vehicle: saline 109 % of control | dose: 675.0 mg/kg/injection, schedule: Q06HX012 (ip), vehicle: saline 107 % of control | dose: 800.0 mg/kg/injection, schedule: Q04DX003 (ip), vehicle: saline 121 % of control | dose: 1000.0 mg/kg/injection, schedule: Q06HX008 (ip), vehicle: saline 92 % of control

CC(=O)C1CCC2C3CCC4CC(O)CCC4(C)C3CCC12C#N (stereo not drawn)
inactive: dose: 100.0 mg/kg/injection, schedule: Q01DX001 (sc), vehicle: steriod suspending solution 104 % of control | dose: 200.0 mg/kg/injection, schedule: Q01DX001 (sc), vehicle: steriod suspending solution 106 % of control | dose: 400.0 mg/kg/injection, schedule: Q01DX001 (sc), vehicle: steriod suspending solution 95 % of control

Clc1ccc(/C(=[C](\[Hg]/[C](=C(\c2ccccc2)c2ccc(Cl)cc2)c2ccccc2)c2ccccc2)c2ccccc2)cc1
inactive: dose: 100.0 mg/kg/injection, schedule: Q01DX001 (ip), vehicle: Klucel (hydroxypropylcellulose) (HPC) 97 % of control | dose: 100.0 mg/kg/injection, schedule: Q04DX003 (ip), vehicle: Klucel (hydroxypropylcellulose) (HPC) 100 % of control | dose: 200.0 mg/kg/injection, schedule: Q01DX001 (ip), vehicle: Klucel (hydroxypropylcellulose) (HPC) 107 % of control | dose: 200.0 mg/kg/injection, schedule: Q04DX003 (ip), vehicle: Klucel (hydroxypropylcellulose) (HPC) 88 % of control | dose: 400.0 mg/kg/injection, schedule: Q01DX001 (ip), vehicle: Klucel (hydroxypropylcellulose) (HPC) 97 % of control | dose: 400.0 mg/kg/injection, schedule: Q04DX003 (ip), vehicle: Klucel (hydroxypropylcellulose) (HPC) 100 % of control

COc1cccc2c1C(=O)c1c(O)c3c(c(O)c1C2=O)C[C@@](O)(C(C)=O)C[C@@H]3OC1CC(N)C(O)C(C)O1 (stereo partly drawn)
inactive: dose: 0.02 mg/kg/injection, schedule: Q01DX015 (ip), vehicle: saline 100 % of control | dose: 0.05 mg/kg/injection, schedule: Q01DX010 (ip), vehicle: saline 112 % of control | dose: 0.05 mg/kg/injection, schedule: Q01DX015 (ip), vehicle: saline 115 % of control | dose: 0.1 mg/kg/injection, schedule: Q01DX010 (ip), vehicle: saline 119 % of control | dose: 0.1 mg/kg/injection, schedule: Q01DX015 (ip), vehicle: saline 101 % of control and 110 % of control | dose: 0.18 mg/kg/injection, schedule: Q01DX015 (ip), vehicle: saline 106 % of control | dose: 0.2 mg/kg/injection, schedule: Q01DX010 (ip), vehicle: saline 122 % of control | dose: 0.2 mg/kg/injection, schedule: Q01DX015 (ip), vehicle: saline 106 % of control | dose: 0.3 mg/kg/injection, schedule: Q01DX015 (ip), vehicle: saline 99 % of control | dose: 0.37 mg/kg/injection, schedule: Q01DX015 (ip), vehicle: saline 121 % of control | dose: 0.4 mg/kg/injection, schedule: Q01DX015 (ip), vehicle: saline 103 % of control and 113 % of control
